In brackets after ≈: the same amount, converted by molar mass. Where two headings read alike, the source gives them in different places.
Experiments:
[1] = system: S. AUREUS; assay: Minimum Inhibitory Concentration (MIC), broth dilution in Brain Heart Infusion broth; assay type: cell-based, Staphylococcus aureus; conditions: Staphylococcus aureus, read-out: MIC S. AUREUS
Procedure: (§1) For testing against the bacteria, concentrations of each of the compounds were prepared in Brain Heart Infusion broth (Oxoid CM225) in two-fold steps from 1000 μg/ml to 1 μg/ml. Solutions containing 1000 μg/ml were prepared by dissolving 20 mg of each compound in 5 ml of acetone and this was then made up to 20 ml with Brain Heart Infusion Broth. Serial two-fold dilutions were then prepared in the broth down to 1 μg/ml.
(§2) For testing against the bacteria each of the prepared test concentrations and acetone controls prepared in Brain Heart Infusion were dispensed in 2 ml amounts for each organism. A growth control of 2 ml of Brain Heart Infusion was included in each series.
(§3) To each of the prepared sets of concentrations of each compound were added 0.1 ml aliquots of the organism suspensions prepared as described previously. All the bottles were incubated at 37° C. for 48 hours in the case of the bacteria and from 5 to 15 days for the fungi (until growth controls had grown in each case).
(§4) After incubation the broths were examined for evidence of growth. The lowest concentration of the test compound which prevented growth was recorded as the Minimum Inhibitory Concentration (MIC).

[2] = system: St. PYOGENES; assay: as above; assay type: cell-based; conditions: Streptococcus pyogenes, 37° C., 48 hours
Procedure: as §1, §2, §3, §4

[3] = system: C. ALBICANS; assay: Minimum Inhibitory Concentration (MIC), dilution in Sabouraud liquid medium; assay type: cell-based; conditions: Candida albicans, 37° C., 5 to 15 days
Procedure: (§5) For testing against the fungi, concentrations of each of the compounds were prepared in Sabouraud liquid medium in two-fold steps from 100 μg/ml to 0.1 μg/ml. 500 μg/ml solutions were prepared by dissolving 10 mg in 5 ml of acetone, made up to 20 ml with Sabouraud liquid medium. 4 ml of the 500 μg/ml concentration was then made up to 20 ml with Sabouraud liquid medium to give a concentration of 100 μg/ml. Serial two-fold dilutions were prepared from this in the same medium down to 0.1 μg/ml.
(§6) For the fungi the same procedure was followed using the concentrations made up in Sabouraud liquid medium. The Nystatin concentrations were also dispensed in 2 ml amounts for each organism. Growth controls of Sabouraud liquid medium were included in each series.
as §3, §4

[4] = system: Mic. CANIS; assay: as above; assay type: cell-based; conditions: Microsporum canis, 37° C., 5 to 15 days
Procedure: as §5, §6, §3, §4

[5] = system: Sp. SCHENKII; assay: as above; assay type: cell-based; conditions: 37° C., 5 to 15 days
Procedure: as §5, §6, §3, §4

[6] = system: Tr. MENTAGROPHYTES; assay: as above; assay type: cell-based; conditions: Trichophyton mentagrophytes, 37° C., 5 to 15 days
Procedure: as §5, §6, §3, §4

[7] = system: Tr. RUBRUM; assay: as above; assay type: cell-based; conditions: Trichophyton rubrum, 37° C., 5 to 15 days
Procedure: as §5, §6, §3, §4

[8] = Acute oral toxicity in CD-1 mice; assay type: in vivo; conditions: mouse, in vivo, male and female CD-1 mice, dose levels 1000, 464, 215 and 100 mg/kg, 7 days observation
Procedure: Male and female CD-1 mice were fasted for 18 hours prior to the experiment, but water was available ad libitum except during the observation period. The test compounds were prepared in 1% tragacanth and were administered orally to groups of two male and two female mice.
All compounds were tested at dose levels of 1000, 464, 215 and 100 mg/kg. Immediately after dosing, the mice were replaced in their "home" cage and were observed daily for 7 days post dose and any mortalities recorded.
The acute toxicities, as determined by the above procedure, of a number of representative compounds are given in the accompanying table.

[9] = 37° C., 48 hours, Brain Heart Infusion broth

SMILES | MIC [1, 9] [µg/mL] | MIC [2] [µg/mL] | MIC [3] [µg/mL] | MIC [4] [µg/mL] | MIC [5] [µg/mL] | MIC [6] [µg/mL] | MIC [7] [µg/mL] | LD50 at 168 h [8] [mg/kg] | MIC ([1]; 48 h) [µg/mL]
CCCC(=O)c1c(O)cc(O)c(Cc2ccccc2)c1O [Compound 24, 2-Butyryl-4-benzylphloroglucinol] | 16 (≈ 55.9 µM) | 8 (≈ 27.9 µM) | 25 (≈ 87.3 µM) | 13 (≈ 45.4 µM) | 25 (≈ 87.3 µM) | 13 (≈ 45.4 µM) | 6 (≈ 21 µM) | 1000 | 
CCCCCCCCC(=O)c1c(O)cc2c(c1O)CCC(C)(C)O2 [Compound 34, 5,7-dihydroxy-2,2-dimethyl-6-nonanoyl chroman] | 500 (≈ 1490 µM) | 4 (≈ 12 µM) | 100 (≈ 299 µM) | > 100 | > 100 | > 100 | 100 (≈ 299 µM) | > 1000 | 
CC(C)=CCc1c(O)cc(O)c(C(=O)C2CCCC2)c1O [Compound 9, 2-(2-Cyclopentyl-1-oxo)-4-(3-methylbuten-2-yl)phloroglucinol] |  | 8 (≈ 27.6 µM) | 6.2 (≈ 21.4 µM) | 1.6 (≈ 5.51 µM) | 6.2 (≈ 21.4 µM) | 6.2 (≈ 21.4 µM) | 3.1 (≈ 10.7 µM) | < 100 | 32 (≈ 110 µM)
CCCCCCCCC(=O)c1c(O)cc(O)c(Cc2ccccc2)c1O [Compound 27, 2-Nonanoyl-4-benzylphloroglucinol] |  | 1 (≈ 2.81 µM) | 100 (≈ 281 µM) | 50 (≈ 140 µM) | 50 (≈ 140 µM) | 5 (≈ 14 µM) | > 100 | > 1000 | 2 (≈ 5.61 µM)
C=CCc1c(O)cc(O)c(C(=O)C2CCCCC2)c1O [Compound 20] | 32 (≈ 116 µM) | 8 (≈ 29 µM) | 25 (≈ 90.5 µM) | 13 (≈ 47 µM) | 25 (≈ 90.5 µM) | 13 (≈ 47 µM) | 25 (≈ 90.5 µM) | > 1000 | 
C=CCc1c(O)cc(O)c(C(=O)CCCC)c1O [Compound 17] | 64 (≈ 256 µM) | 16 (≈ 63.9 µM) | 25 (≈ 99.9 µM) | 6 (≈ 24 µM) | 25 (≈ 99.9 µM) | 13 (≈ 51.9 µM) | 13 (≈ 51.9 µM) | > 1000 | 
CC(C)=CCc1c(O)cc(O)c(C(=O)Cc2ccccc2)c1O [Compound 6, 2Phenylacetyl-4-(3-methylbuten-2-yl)phloroglucinol] | 250 (≈ 800 µM) | 8 (≈ 25.6 µM) | > 100 | 50 (≈ 160 µM) | 50 (≈ 160 µM) | 100 (≈ 320 µM) | 25 (≈ 80 µM) | > 1000 | 
CC(C)=CCc1c(O)cc(O)c(C(=O)CCC(C)C)c1O [Compound 7, 2-Isocaproyl-4-(3-methylbuten-2-yl)phloroglucinol] | 16 (≈ 54.7 µM) | 8 (≈ 27.4 µM) | 25 (≈ 85.5 µM) | 6 (≈ 20.5 µM) | 25 (≈ 85.5 µM) | 6 (≈ 20.5 µM) | 6 (≈ 20.5 µM) | 1000 | 
CCCCCC(=O)c1c(O)cc(O)c(CC=C(C)C)c1O [Compound 5, 2-Caproyl-4-(3-methylbuten-2-yl)phloroglucinol] | 8 (≈ 27.4 µM) | 4 (≈ 13.7 µM) | 13 (≈ 44.5 µM) | 1.6 (≈ 5.47 µM) | 13 (≈ 44.5 µM) | 6 (≈ 20.5 µM) | 3 (≈ 10.3 µM) | > 1000 | 
CCCC(=O)c1c(O)cc(O)c(C(=O)CCC)c1O [Compound 1, 2,4-Dibutyrylphloroglucinol] | 2 (≈ 7.51 µM) | 1 (≈ 3.76 µM) | 13 (≈ 48.8 µM) | 3 (≈ 11.3 µM) | 6 (≈ 22.5 µM) | 6 (≈ 22.5 µM) | 6 (≈ 22.5 µM) | > 1000 | 
CC(C)CCC(=O)c1c(O)cc2c(c1O)CCC(C)(C)O2 [Compound 33, 5,7-dihydroxy-2,2-dimethyl-6-isocaproyl chroman] | 125 (≈ 428 µM) | 64 (≈ 219 µM) | 100 (≈ 342 µM) | 100 (≈ 342 µM) | > 100 | > 100 | 25 (≈ 85.5 µM) | > 1000 | 
C=CCc1c(O)cc(O)c(C(=O)CCCCC)c1O [Compound 18] | 16 (≈ 60.5 µM) | 8 (≈ 30.3 µM) | 13 (≈ 49.2 µM) | 6 (≈ 22.7 µM) | 13 (≈ 49.2 µM) | 6 (≈ 22.7 µM) | 13 (≈ 49.2 µM) | > 1000 | 
CCCC(=O)c1c(O)c2c(c(C(=O)CCC)c1O)OC(C)(C)CC2 [Compound 36, 5,7-Dihydroxy-6,8-dibutyryl-2,2-dimethylchroman] | 250 (≈ 748 µM) | 64 (≈ 191 µM) | 100 (≈ 299 µM) | 100 (≈ 299 µM) | 100 (≈ 299 µM) | 100 (≈ 299 µM) | 100 (≈ 299 µM) | > 1000 | 
CCCCCCCC(=O)c1c(O)cc(O)c(CC=C(C)C)c1O [Compound 11, 2-Octanoyl-4-(3-methylbuten-2-yl)phloroglucinol] | 64 (≈ 200 µM) | 2 (≈ 6.24 µM) | 100 (≈ 312 µM) | 50 (≈ 156 µM) | > 100 | 100 (≈ 312 µM) | 50 (≈ 156 µM) | 597 | 
CCCC(=O)c1c(O)cc(O)c2c1OC(C)(C)CC2 [Compound 30, 5,7-dihydroxy-2,2-dimethyl-8-butyryl chroman] | 32 (≈ 121 µM) | 32 (≈ 121 µM) | 25 (≈ 94.6 µM) | 6 (≈ 22.7 µM) | 25 (≈ 94.6 µM) | 13 (≈ 49.2 µM) | 13 (≈ 49.2 µM) | > 1000 | 
CCCCCCCCC(=O)c1c(O)cc(O)c2c1OC(C)(C)CC2 [Compound 32, 5,7-Dihydroxy-2,2-dimethyl-8-nonanoyl chroman] | 64 (≈ 191 µM) | < 1 | 100 (≈ 299 µM) | 100 (≈ 299 µM) | 100 (≈ 299 µM) | > 100 | > 100 | > 1000 | 
CCCC(=O)c1c(O)c2c(c(C(=O)CCC)c1O)OC(C)C2 (centres unmarked) [Compound 37, 4,6-dihydroxy-5,7-dibutyryl-2-methyl-2,3-dihydrobenzofuran] | 125 (≈ 408 µM) | 32 (≈ 104 µM) | > 100 | > 100 | > 100 | > 100 | 100 (≈ 326 µM) | > 215 | 
C=CCc1c(O)cc(O)c(C(=O)CCC(C)C)c1O [Compound 19] | 16 (≈ 60.5 µM) | 4 (≈ 15.1 µM) | 25 (≈ 94.6 µM) | 6 (≈ 22.7 µM) | 13 (≈ 49.2 µM) | 13 (≈ 49.2 µM) | 6 (≈ 22.7 µM) | > 1000 | 
CC(C)=CCc1c(O)cc(O)c(C(=O)C2CCCCC2)c1O [Compound 8, 2-Hexahydrobenzoyl-4-(3-methylbuten-2-yl)phloroglucinol] | 32 (≈ 105 µM) | 8 (≈ 26.3 µM) | 13 (≈ 42.7 µM) | 6 (≈ 19.7 µM) | 13 (≈ 42.7 µM) | 6 (≈ 19.7 µM) | 6 (≈ 19.7 µM) | > 1000 | 
CC(C)=CCc1c(O)cc(O)c(C(=O)Cc2ccc(Cl)cc2)c1O [Compound 14, 2-(4-Chlorophenyl)acetyl-4-(3-methylbuten-2-yl)phloroglucinol] | 16 (≈ 46.1 µM) | 8 (≈ 23.1 µM) | 100 (≈ 288 µM) | 50 (≈ 144 µM) | 100 (≈ 288 µM) | 100 (≈ 288 µM) | > 100 | 1000 | 
CCCCC(=O)c1c(O)cc(O)c(CC=C(C)C)c1O [Compound 4, 2-Valeryl-4-(3-methylbuten-2-yl)phloroglucinol] | 64 (≈ 230 µM) | 16 (≈ 57.5 µM) | 25 (≈ 89.8 µM) | 13 (≈ 46.7 µM) | 25 (≈ 89.8 µM) | 13 (≈ 46.7 µM) | 13 (≈ 46.7 µM) | > 1000 | 
C=CCc1c(O)cc(O)c(C(=O)Cc2ccc(Cl)cc2)c1O [Compound 23] | 32 (≈ 100 µM) | 8 (≈ 25.1 µM) | 13 (≈ 40.8 µM) | 6 (≈ 18.8 µM) | 25 (≈ 78.4 µM) | 13 (≈ 40.8 µM) | 13 (≈ 40.8 µM) | > 1000 | 
